Laboratory results as given in PMC10004777 (Molecules, 2023).

How the values were obtained:
HepG2 cells = assay: Cell viability (MTT) assay, HepG2; assay type: cell-based; conditions: 48 h, MTT
Method: (§1) To investigate the selectivity of these derivatives towards different tumor cell lines, we also selected HepG2 and osteosarcoma cell line SJSA-1 cells to evaluate the anti-proliferation activity of the derivatives. […] Except for compounds A2 and A11, the effects of other compounds on SJSA-1 were not strong.
(§2) The cell lines present in this study were obtained from Procell Life Science & Technology Co. Ltd. MCF-7, HepG2 and SJSA-1 cells were cultured in DMEM medium (DMEM, Gibco) supplemented with 10% fetal bovine serum (FBS, Gibco), 1% penicillin-streptomycin (Hyclone) at 37℃ in a humid environment with 5% CO2. HK-2 cells were cultured in DMEM/F12 (1:1) medium and placed in incubators in the same environment.
(§3) Cell viability was determined by MTT assay. MCF-7, HepG2, SJSA-1 and HK-2 cells (6 × 10^3 cells /well) were seeded in 96-well plates with serum-free medium for 24 h. […] After 48 or 72 h, 10 μL MTT (5 mg/mL, Beyotime) was added and incubated at 37 °C for 4 h. Then 100 μL of lysate was added. After complete dissolution of the crystal, the absorbance was measured at 540 nm and expressed as the average percentage of absorbance between treated and control cells. The value for control cells was set at 100%. Cell survival rate was calculated as the ratio of the absorbance of the cells and negative control after minus the blank absorbance respectively.

[1] = tested on: MCF-7 breast cancer cells; assay: Cell viability (MTT) assay, MCF-7; assay type: cell-based; conditions: 48 h, MTT
Method: MCF-7 is a commonly used tumor cell line.
as §2, §3

[2] = tested on: osteosarcoma cell line SJSA-1; assay: Cell viability (MTT) assay, SJSA-1; assay type: cell-based; conditions: 72 h, MTT
Method: as §1, §2, §3

MDM2 protein = target: T1, MDM2 protein (Homo sapiens, UniProt Q00987); design: method as in PMID 22380771; conditions: read-out: Ki (predicted affinity with MDM2 protein); virtual screening prediction; cited from earlier work
T1 construct: purchased Protintech (so in the source)
T1 sequence (Q00987 whole entry): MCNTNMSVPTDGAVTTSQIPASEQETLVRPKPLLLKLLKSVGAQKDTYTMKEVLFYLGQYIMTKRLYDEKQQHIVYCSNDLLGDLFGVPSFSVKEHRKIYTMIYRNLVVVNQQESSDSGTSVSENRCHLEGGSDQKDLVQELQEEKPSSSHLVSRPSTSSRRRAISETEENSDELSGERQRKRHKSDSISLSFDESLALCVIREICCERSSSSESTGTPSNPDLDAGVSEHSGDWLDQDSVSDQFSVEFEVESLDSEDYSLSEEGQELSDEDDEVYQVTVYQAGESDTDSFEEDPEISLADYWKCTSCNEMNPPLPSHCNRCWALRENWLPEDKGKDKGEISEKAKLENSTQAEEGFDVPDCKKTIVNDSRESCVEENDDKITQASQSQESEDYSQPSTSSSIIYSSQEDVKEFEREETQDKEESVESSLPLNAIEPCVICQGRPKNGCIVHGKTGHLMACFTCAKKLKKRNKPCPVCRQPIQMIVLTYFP

HK-2 cells = assay: Cell viability (MTT) assay, HK-2 normal cells (cytotoxicity); assay type: cell-based; conditions: HK-2 normal cells, 48 h, MTT
Method: as §2, §3

[3] = tested on: 95-D cells versus H1299 cells; design: method as in doi:10.13386/j.issn1002-0306.2015.11.030; conditions: cited from earlier work

Row | Compound | Viability of Cells (% of Control) (HepG2 cells; HepG2, 25 µM) | Viability of Cells (% of Control) (HepG2 cells; HepG2, 50 µM) | Viability of Cells (% of Control) ([1]; MCF-7, 25 µM) | Viability of Cells (% of Control) ([1]; MCF-7, 50 µM) | Viability of Cells (% of Control) ([1]; MCF-7, 100 µM) | Viability of Cells (% of Control) ([2]; SJSA-1, 50 µM) | Viability of Cells (% of Control) ([2]; SJSA-1, 100 µM) | Ki (MDM2 protein) | Viability of Cells (% of Control) (HK-2 cells; 50 µM) | Viability of Cells (% of Control) (HK-2 cells; 100 µM) | sensitivity of 95-D cells (wild-type p53) relative to H1299 cells (no p53) [3]
1 | C[C@H](CC(=O)C[C@@H](C)[C@H]1C[C@H](O)[C@@]2(C)C3=C(C(=O)C[C@]12C)[C@@]1(C)CCC(=O)C(C)(C)[C@@H]1C[C@@H]3O)C(=O)O [GAA, Ganoderic acid A, reference compound] | 83.0 ± 1.5 % of Control | 84.0 ± 0.1 % of Control | 109.9 ± 2.1 % of Control | 86.2 ± 5.2 % of Control | 83.6 ± 9.4 % of Control | 73.5 ± 1.1 % of Control | 74.0 ± 4.0 % of Control | 147 nM | 117.8 ± 6.3 % of Control | 104.9 ± 7.6 % of Control | –
2 | CC(=O)O[C@@H](C/C=C(\C)C(=O)O)[C@@H](C)[C@H]1C[C@H](OC(C)=O)[C@@]2(C)C3=CC[C@H]4C(C)(C)[C@H](OC(C)=O)CC[C@]4(C)C3=CC[C@]12C [ganoderic acid T] | – | – | – | – | – | – | – | – | – | – | 3.3 times
